Measurements reported in patent US8900444B2, “Switchable hydrophilicity solvents and methods of use thereof” (Queen's University at Kingston, priority 2009, dated 2014).
“Also recorded” adds a separate entry of the source. Where two headings read alike, the source gives them in different places.

Experiments:
Assay type in all cases: physicochemical
[1] = Water miscibility of amidines in neutral form and after CO2; settings: for miscibility with water, neutral (unprotonated) amidine form: no CO2
From the text: This represents relatively hydrophilic character. The amidines A-D are unsatisfactory for use as a switchable hydrophilicity solvent because they are insufficiently hydrophobic in their amidine form. […] Since such amidines are not separable from water after switching from their hydrophilic to hydrophobic forms, they are unsuitable for use in the present invention.
Exposure of a 1:1 by volume mixture of two immiscible liquids, hydrophobic PA and water, to gaseous CO2, at 1 atmosphere, caused a conversion to a hydrophilic liquid comprising an aqueous solution of N,N,N′-tripropylbutyramidinium bicarbonate (PAB) (see FIG. 1 for the chemical scheme in which R^1-4 are propyl). NMR data for the PA/water system is presented in FIGS. 4 and 5 and IR data in FIG. 6. FIGS. 4A and 5A show ^1H and ^13C NMR data for PA. After switching, the detection of the N,N,N′-tripropylbutyramidinium bicarbonate salt was confirmed by ^1H and ^13C NMR as shown in FIGS. 4B and 5B.
Similarly, exposure of a 1:1 by volume mixture of two immiscible liquids, hydrophobic BA and water, to gaseous CO2, at 1 atmosphere, caused a conversion to a hydrophilic liquid comprising an aqueous solution of N,N,N′-tributylpentanamidinium bicarbonate (BAB) (see FIG. 1 for the chemical scheme in which R^1-4 are butyl). NMR data for the […] is presented in FIGS. 7 and 8 and IR data in FIG. 9. […] show ^1H and ^13C NMR data for BA. After switching, the detection of the N,N,N′-tributylpentanamidinium bicarbonate salt was confirmed by ^1H and ^13C NMR as shown in FIGS. 6B and 7B. The hydrophilic aqueous solution of BAB was converted back into hydrophobic BA and water by heating at 80° C.

[2] = Miscibility of amines with water in the presence of CO2 (Example 5B); settings: CO2 bubbled through amine/water mixture for at least one hour
Method: All of the amines that formed a biphasic mixture in Example 5A were subjected to the following test. Carbon dioxide was bubbled through the amine/water biphasic mixture, via a syringe needle, for at least one hour. Care was taken to regulate the rate of the CO2 bubbling, so as not to cause evaporation of the amine. The liquid-liquid interface was observed over the course of CO2 bubbling, and a photo was taken after 60 minutes.

[3] = Miscibility of amines with water in the absence of CO2 (Example 5A)
Method: 1 mL of an appropriate amine was combined with 1 mL of H2O in a 4 mL vial, with the 1 and 2 mL volume lines marked. The vial was manually shaken and left to settle at room temperature. After the mixture settled, the number of phases was observed visually. This procedure was performed for all of the screened amines.

[4] = Visual and NMR study of amine switchable hydrophilicity solvents (Example 6); settings: for loss of volume after CO2 bubbling / time of CO2 bubbling to form one homogeneous solution / total volume after CO2 bubbling / number of layers formed without CO2: 1 mL amine + 1 mL D2O; for number of layers formed without CO2: room temperature
Method: The following amines were evaluated in this series of experiments: N-ethylpiperidine, N,N-dimethylcyclohexylamine, and N,N-dimethylhexylamine. The sequence of experiments is described for one amine but was performed for all three. The visual observations are described in Table 3. 1,4-Dioxane was used as an internal standard for NMR spectroscopy.
Amine (1 mL) was combined with D2O (1 mL) in a 10 mL graduated cylinder, which was then capped with a rubber septum. The cylinder was manually shaken and left to settle at room temperature, after which the mixture appeared as two transparent liquid phases. For each amine, this procedure was simultaneously conducted in 3 identical cylinders. From the aqueous (bottom) layer of one of the three cylinders, three 250 μL samples were withdrawn, combined with equal volumes of D2O and dioxane internal standard, and analyzed by ^1H NMR spectroscopy. The spectra were consistent with the amine in the aqueous phase being in its neutral form. The graduated cylinder from which the samples were taken was discarded.
For each of two remaining graduated cylinders, carbon dioxide was bubbled through the amine/water biphasic mixture, via a syringe needle, for at least one hour. Care was taken to regulate the rate of the CO2 bubbling, so as not to cause significant evaporation of the amine. The mixture changed from a biphasic liquid mixture to a single homogeneous liquid phase. From one of the two graduated cylinders, a 300 μL sample of the homogenous liquid phase was withdrawn and mixed with an equal volume of D2O and a known quantity of dioxane internal standard. […] The graduated cylinder from which the sample was taken was discarded.
The remaining graduated cylinder, containing the single-phase amine/water/CO2 mixture prepared above, was heated in an oil bath at 80 deg. C for 1 hour. Phase separation was observed. Three 250 μL samples of the aqueous (bottom) layer were withdrawn, combined with equal volumes of D2O and a known quantity of dioxane internal standard, and analyzed by NMR spectroscopy.

[5] = Converting ammonium bicarbonate salt to amine by bubbling air at room temperature (Example 5D)
Method: A homogeneous aqueous solution of dimethylcyclohexylammonium bicarbonate was prepared by mixing N,N-dimethylcyclohexylamine (1 mL), and H2O (1 mL) and bubbling with CO2 for 90 minutes. The 2.0 mL solution was placed in a 10 mL graduated cylinder with a magnetic stir bar and that was then stoppered with a rubber septum. Air was bubbled through the solution for a total of 28 hours, with constant stirring. […] Total volume loss after 28 hours was 0.1 mL.

[6] = 1 mL amine + 1 mL H2O, room temperature, visual
[7] = 2.0 mL aqueous solution, stirring

Structure (SMILES)	miscibility with water after CO2 treatment [2]	miscibility with water under air (absence of CO2) [3, 6]	further results
C1CCC2=NCCCN2CC1 [DBU, 1,8-diazabicyclo-[5.4.0]-undec-7-ene, reference compound]			miscibility with water, neutral (unprotonated) amidine form [1]: water-miscible
CCN(C)CC [N,N-diethyl-N-methylamine]	became water-miscible	immiscible with water	
CCCN(CCC)CCCCN(CCC)CCC [N,N,N′,N′-tetrapropylbutane-1,4-diamine, reference compound]	biphasic	biphasic	miscibility with water after CO2 treatment ([2]; listed as Pr2NCH2CH2CH2CH2NPr2): immiscible
CN(C)c1ccccc1 [N,N-dimethylaniline, reference compound]	biphasic	biphasic	
CCCCCCN(C)C [N,N-dimethylhexylamine]	single-phase	biphasic	miscibility with water after CO2 treatment ([2]; listed as dimethylhexylamine): became water-miscible; miscibility with water under air (absence of CO2) ([3]; 1 mL amine + 1 mL H2O, room temperature, visual, listed as dimethylhexylamine): immiscible with water; loss of volume after CO2 bubbling [4]: (loss of 0.1 mL); time of CO2 bubbling to form one homogeneous solution [4]: took 75 min to form one; total volume after CO2 bubbling [4]: total volume is 1.9 mL; number of layers formed without CO2 [4]: formed 2 clear,; time of heating to separate into 2 layers ([4]; oil bath 80 deg. C): after 30 min solution has; volume of bottom (aqueous) layer after heating ([4]; oil bath 80 deg. C): 1 mL; volume of top layer after heating ([4]; oil bath 80 deg. C): 0.9 mL
CCN1CCOCC1 [N-ethylmorpholine, reference compound]		single-phase	
CCCCN1CCCC1 [N-butylpyrrolidine]	became water-miscible; also recorded: single-phase	immiscible with water; also recorded: biphasic	
CCCN=C(CCC)N(CCC)CCC [PA, N,N,N′-tripropylbutyramidine]			miscibility with water after CO2 trigger (amidinium bicarbonate form) ([1]; CO2 and water): became miscible; miscibility with water, neutral (unprotonated) amidine form [1]: immiscible with water
CN(C)CC1CC(CN(C)C)CC(CN(C)C)C1 (centres unmarked) [1,1′,1″-(cyclohexane-1,3,5-triyl)tris(N,N-dimethylmethanamine]	single-phase	biphasic	
CCCCN(C)C [N,N-dimethylbutylamine]	single-phase	biphasic	
CN1CCCCC1 [N-methylpiperidine, reference compound]		single-phase	
CCCCCCCCN(CCCCCCCC)CCCCCCCC [trioctylamine, reference compound]	biphasic	biphasic	
CCN(CC)C1CCCCC1 [N,N-diethyl-N-cyclohexylamine]	became water-miscible	immiscible with water	
CCCCCCN=C(C)N(C)C [Me2N—C(═N-hexyl)Me, reference compound]			miscibility with water, neutral (unprotonated) amidine form [1]: water-miscible
CCCN(CC)CCCCN(CC)CCC [N,N′-dipropyl-N,N′-diethylbutane-1,4-diamine]	single-phase	biphasic	miscibility with water after CO2 treatment ([2]; listed as EtPrNCH2CH2CH2CH2NEtPr): miscible; miscibility with water under air (absence of CO2) ([3]; 1 mL amine + 1 mL H2O, room temperature, visual, listed as EtPrNCH2CH2CH2CH2NEtPr): immiscible
CCN(C(C)C)C(C)C [N,N-diisopropylethylamine, reference compound]	biphasic	biphasic	
CN(C)CCCCN(C)C [Me2NCH2CH2CH2CH2NMe2, reference compound]		miscible	
CN(C)Cc1cc(CN(C)C)cc(CN(C)C)c1 [1,1′,1″-(benzene-1,3,5-triyl)tris(N,N-dimethylmethanamine)]	single-phase	biphasic	
CN(C)CCN(C)C [N,N,N′,N′,-tetramethylethylenediamine, reference compound]			miscibility with water under air (absence of CO2) [3]: single-phase
CCCCCCCCCCCCN(C)C [N,N-dimethyldodecylamine, reference compound]	biphasic	biphasic	
CCN1CCCCC1 [N-ethylpiperidine]	became water-miscible; also recorded: single-phase	immiscible with water; also recorded: biphasic	loss of volume after CO2 bubbling [4]: (loss of 0.1 mL); time of CO2 bubbling to form one homogeneous solution [4]: took 60 min to form one; total volume after CO2 bubbling [4]: total volume is 1.9 mL; number of layers formed without CO2 [4]: formed 2 layers;; amine remaining in the aqueous phase after heating ([4]; 80 deg. C, 1 hour, NMR spectroscopy, dioxane internal standard): showed that approximately 49%; time of heating to separate into 2 layers ([4]; oil bath 80 deg. C): after 30 min, separated into 2; volume of top layer after heating ([4]; oil bath 80 deg. C): 0.7 mL. NMR spectroscopy
CN(C)C1CCCCC1.O=C(O)O [dimethylcyclohexylammonium bicarbonate]			total volume loss after 28 hours of air bubbling [5]: 0.1 mL; volume of bottom layer after 28 hours of air bubbling [5]: 1.6 mL; volume of top layer after 28 hours of air bubbling [5]: 0.3 mL; observation after 8 hours of air bubbling [5, 7]: no observed phase separation or volume loss; observation after 28 hours of air bubbling [5, 7]: a two-phase liquid mixture was observed
CCCN(CCC)CCC [tripropylamine, reference compound]	biphasic	biphasic	
